In patent US10376520B2, “Methods for the treatment of cardiovascular disorders” (Galapagos NV, priority 2015, dated 2019):

Tested on: RA patients
Test: LDL determination, Study 1 (RA patients, add-on to MTX)
Assay type: in vivo, human
Settings: for [LDL] Mean CFB / [LDL] Median CFB: Study 1 24 weeks results
Experimental: Double-blind, placebo-controlled add on study in subjects with moderately to severely active RA who have an inadequate response to methotrexate (MTX) (oral or parenteral).
595 subjects randomized to one of 6 dose regimens of Compound 1 (dosed as a [Compound 1:HCl:3H2O]) (3 dose levels administered either once or twice daily) or placebo on top of each subject's stable dose of MTX.
Compound 1 (dosed as a [Compound 1:HCl:3H2O]) is dosed for twelve weeks once daily (q.d.) (50 mg, 100 mg or 200 mg) or twice daily (b.i.d.) (25 mg, 50 mg or 100 mg); or placebo.
At Week 12, the subjects on placebo who have not achieved 20% improvement in swollen joint count (SJC66) and tender joint count (TJC68) are re-randomized automatically to receive Compound 1 (dosed as a [Compound 1:HCl:3H2O]) either at 100 mg q.d. or 50 mg b.i.d. doses in a blinded fashion; subjects on 50 mg q.d. who have not achieved 20% improvement in SJC66 and TJC68 will be assigned to 100 mg q.d. and subjects on 25 mg b.i.d. that have not achieved a 20% improvement in SJC66 and TJC68 will be assigned to 50 mg b.i.d. Subjects who switch treatment at week 12 are handled as if they discontinued at week 12 for the purpose of statistical analysis, whereas subjects in the other groups will maintain their randomized treatment until Week 24.
The determination of [LDL]-cholesterol is made using an automated method taking advantage of the selective micellary solubilization of [LDL]-cholesterol by a nonionic detergent and the interaction of a sugar compound and lipoproteins (VLDL and chylomicrons).
When a detergent is included in the enzymatic method for cholesterol determination (cholesterol esterase, cholesterol oxidase coupling reaction), the relative reactivities of cholesterol in the lipoprotein fractions increase in this order: [HDL]<chylomicrons <VLDL <[LDL]. In the presence of Mg^2+, a sugar compound markedly reduces the enzymatic reaction of the cholesterol measurement in VLDL and chylomicrons. The combination of a sugar compound with detergent enables the selective determination of [LDL]-cholesterol in serum. (Friedewald et al., 1972; Rifai et al., 1992)
Homogeneous enzymatic colorimetric assay.
In the presence of peroxidase, the hydrogen peroxide generated reacts with 4-aminoantipyrine and Sodium N-(2-hydroxy-3-sulfopropyl)-3,5-dimethoxyaniline (HSDA) to form a purple-blue dye.
The color intensity of this dye is directly proportional to the cholesterol concentration and is measured photometrically.
Human serum and plasma samples [LDL] determination was done on a Roche/Hitachi Cobas c 701/702 system which automatically calculate the analyte concentration of each sample. Samples containing precipitates are centrifuged before performing the assay.

[1] = placebo switched to 50 mg b.i.d at week 12, week 16
[2] = placebo switched to 50 mg b.i.d at week 12, week 20
[3] = placebo switched to 50 mg b.i.d at week 12, week 24

O=C(Nc1nc2cccc(-c3ccc(CN4CCS(=O)(=O)CC4)cc3)n2n1)C1CC1 [Compound 1, cyclopropanecarboxylic acid {5-[4-(1,1-dioxo-thiomorpholin-4-ylmethyl)-phenyl]-[1,2,4]triazolo[1,5-a]pyridin-2yl}-amide]
[LDL] Mean CFB (continued 50 mg q.d., week 20): 0.14 mmol/L
[LDL] Median CFB (continued 50 mg q.d., week 20): 0.20 mmol/L
[LDL] Mean CFB (continued 50 mg q.d., week 24): 0.13 mmol/L
[LDL] Median CFB (continued 50 mg q.d., week 24): 0.14 mmol/L
[LDL] Mean CFB (continued 100 mg q.d., week 1): 0.11 mmol/L
[LDL] Median CFB (continued 100 mg q.d., week 1): 0.10 mmol/L
[LDL] Mean CFB (continued 100 mg q.d., week 2): 0.01 mmol/L
[LDL] Median CFB (continued 100 mg q.d., week 2): 0.02 mmol/L
[LDL] Mean CFB (continued 100 mg q.d., week 4): 0.13 mmol/L
[LDL] Median CFB (continued 100 mg q.d., week 4): 0.13 mmol/L
[LDL] Mean CFB (continued 100 mg q.d., week 8): 0.03 mmol/L
[LDL] Median CFB (continued 100 mg q.d., week 8): 0.04 mmol/L
[LDL] Mean CFB (continued 100 mg q.d., week 12): 0.12 mmol/L
[LDL] Median CFB (continued 100 mg q.d., week 12): 0.13 mmol/L
[LDL] Mean CFB (continued 100 mg q.d., week 16): -0.01 mmol/L
[LDL] Median CFB (continued 100 mg q.d., week 16): 0.03 mmol/L
[LDL] Mean CFB (continued 100 mg q.d., week 20): -0.01 mmol/L
[LDL] Median CFB (continued 100 mg q.d., week 20): 0.02 mmol/L
[LDL] Mean CFB (continued 100 mg q.d., week 24): 0.03 mmol/L
[LDL] Median CFB (continued 100 mg q.d., week 24): 0.03 mmol/L
[LDL] Mean CFB (continued 200 mg q.d., week 24): 0.13 mmol/L
[LDL] Median CFB (continued 200 mg q.d., week 24): 0.17 mmol/L
[LDL] Mean CFB [1]: 0.07 mmol/L
[LDL] Median CFB [1]: 0.16 mmol/L
[LDL] Mean CFB [2]: 0.13 mmol/L
[LDL] Median CFB [2]: 0.06 mmol/L
[LDL] Mean CFB [3]: -0.01 mmol/L
[LDL] Median CFB [3]: 0.22 mmol/L
[LDL] Mean percentage CFB - 24 weeks results (increased from 25 mg b.i.d. to 50 mg b.i.d at 12 weeks, week 1): 2.10%
[LDL] Mean percentage CFB - 24 weeks results (increased from 25 mg b.i.d. to 50 mg b.i.d at 12 weeks, week 2): 4.27%
[LDL] Mean percentage CFB - 24 weeks results (increased from 25 mg b.i.d. to 50 mg b.i.d at 12 weeks, week 4): −3.29%
[LDL] Mean percentage CFB - 24 weeks results (increased from 25 mg b.i.d. to 50 mg b.i.d at 12 weeks, week 8): −5.79%
[LDL] Mean percentage CFB - 24 weeks results (increased from 25 mg b.i.d. to 50 mg b.i.d at 12 weeks, week 12): −0.19%
[LDL] Mean percentage CFB - 24 weeks results (increased from 25 mg b.i.d. to 50 mg b.i.d at 12 weeks, week 16): 3.55%
[LDL] Mean percentage CFB - 24 weeks results (increased from 25 mg b.i.d. to 50 mg b.i.d at 12 weeks, week 20): −8.82%
[LDL] Mean percentage CFB - 24 weeks results (increased from 25 mg b.i.d. to 50 mg b.i.d at 12 weeks, week 24): 2.65%
[LDL] Mean percentage CFB - 24 weeks results (increased from 50 mg q.d. to 100 mg q.d. at 12 weeks, week 1): 0.31%
[LDL] Mean percentage CFB - 24 weeks results (increased from 50 mg q.d. to 100 mg q.d. at 12 weeks, week 2): 4.52%
[LDL] Mean percentage CFB - 24 weeks results (increased from 50 mg q.d. to 100 mg q.d. at 12 weeks, week 4): −1.68%
[LDL] Mean percentage CFB - 24 weeks results (increased from 50 mg q.d. to 100 mg q.d. at 12 weeks, week 8): 1.20%
[LDL] Mean percentage CFB - 24 weeks results (increased from 50 mg q.d. to 100 mg q.d. at 12 weeks, week 12): 2.96%
[LDL] Mean percentage CFB - 24 weeks results (increased from 50 mg q.d. to 100 mg q.d. at 12 weeks, week 16): 4.69%
[LDL] Mean percentage CFB - 24 weeks results (increased from 50 mg q.d. to 100 mg q.d. at 12 weeks, week 20): 3.51%
[LDL] Mean percentage CFB - 24 weeks results (increased from 50 mg q.d. to 100 mg q.d. at 12 weeks, week 24): 4.92%
[LDL] Mean percentage CFB - 24 weeks results [1]: 4.13%
[LDL] Mean percentage CFB - 24 weeks results [2]: 6.69%
[LDL] Mean percentage CFB - 24 weeks results [3]: 2.68%
[LDL] Mean percentage CFB - 24 weeks results (placebo switched to 100 mg q.d. at week 12, week 16): −2.85%
[LDL] Mean percentage CFB - 24 weeks results (placebo switched to 100 mg q.d. at week 12, week 20): −1.07%
[LDL] Mean percentage CFB - 24 weeks results (placebo switched to 100 mg q.d. at week 12, week 24): −8.19%
